Consider eleven compounds from ChEMBL document CHEMBL5634153, “Design, synthesis and preclinical evaluation of muscarine receptor antagonists via a scaffold-hopping approach” (Eur J Med Chem, 2023).

The source made the active and inactive calls. The rule behind the calls is not given here. A value given as a limit tells only on which side of the number the result lay.

Series [1] can be described thus: Cytotoxicity against CHO-K1 cells expressing human muscarinic receptor M1 incubated for 72 hrs by MTT assay. In kind it is toxicity, cell-based. As to conditions: Chinese hamster (Cricetulus griseus).
Series [2] addresses T1, Muscarinic acetylcholine receptor M5 (Homo sapiens, UniProt P08912).
T1 sequence (P08912 whole entry): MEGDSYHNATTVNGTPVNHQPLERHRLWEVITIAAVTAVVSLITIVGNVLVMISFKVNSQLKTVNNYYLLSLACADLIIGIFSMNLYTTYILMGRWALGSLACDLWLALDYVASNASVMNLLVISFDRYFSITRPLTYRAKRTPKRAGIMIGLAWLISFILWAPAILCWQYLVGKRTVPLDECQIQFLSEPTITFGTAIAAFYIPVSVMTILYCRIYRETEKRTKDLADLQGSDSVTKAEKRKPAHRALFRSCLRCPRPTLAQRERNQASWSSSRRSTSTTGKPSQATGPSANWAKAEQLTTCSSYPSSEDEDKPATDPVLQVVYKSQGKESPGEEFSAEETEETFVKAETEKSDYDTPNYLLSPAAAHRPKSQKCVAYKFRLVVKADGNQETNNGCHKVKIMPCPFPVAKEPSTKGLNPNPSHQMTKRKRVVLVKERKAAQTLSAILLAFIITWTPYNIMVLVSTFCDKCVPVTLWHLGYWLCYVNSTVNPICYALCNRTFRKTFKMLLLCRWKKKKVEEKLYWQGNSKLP
Put plainly: Displacement of [3H]NMS from human muscarinic M5 receptor expressed in CHO-K1 cell membrane assessed as inhibition constant incubated for 90 mins by competitive radioligand binding assay. In kind it is cell membranes.

The target in series [3] is Muscarinic acetylcholine receptor M3 (Homo sapiens, UniProt P20309). Briefly: Displacement of [3H]NMS from human muscarinic M3 receptor expressed in CHO-K1 cell membrane assessed as inhibition constant incubated for 90 mins by competitive radioligand binding assay. In kind it is cell membranes. A general note: Loss of bound radioactivity is the signal in a displacement assay; it reports binding, not function.
Sequence of Muscarinic acetylcholine receptor M3 (P20309 whole entry): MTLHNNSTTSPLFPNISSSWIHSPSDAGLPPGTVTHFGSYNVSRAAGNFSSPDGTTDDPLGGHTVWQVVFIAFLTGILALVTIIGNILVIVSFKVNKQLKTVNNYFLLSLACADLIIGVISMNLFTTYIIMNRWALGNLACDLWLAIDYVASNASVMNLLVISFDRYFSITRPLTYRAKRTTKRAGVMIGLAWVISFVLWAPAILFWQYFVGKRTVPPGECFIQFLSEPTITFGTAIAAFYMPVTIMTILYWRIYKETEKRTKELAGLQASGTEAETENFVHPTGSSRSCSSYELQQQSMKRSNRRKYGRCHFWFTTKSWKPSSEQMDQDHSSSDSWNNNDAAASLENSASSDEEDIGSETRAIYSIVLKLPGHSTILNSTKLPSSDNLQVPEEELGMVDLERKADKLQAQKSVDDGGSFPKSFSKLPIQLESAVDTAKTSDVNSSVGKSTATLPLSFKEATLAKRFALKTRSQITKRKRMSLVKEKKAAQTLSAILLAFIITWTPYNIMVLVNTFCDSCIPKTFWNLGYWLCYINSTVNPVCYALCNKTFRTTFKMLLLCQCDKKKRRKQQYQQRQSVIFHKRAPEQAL

In series [4] the target is T2, Muscarinic acetylcholine receptor M4 (Homo sapiens, UniProt P08173).
T2 sequence (P08173 whole entry): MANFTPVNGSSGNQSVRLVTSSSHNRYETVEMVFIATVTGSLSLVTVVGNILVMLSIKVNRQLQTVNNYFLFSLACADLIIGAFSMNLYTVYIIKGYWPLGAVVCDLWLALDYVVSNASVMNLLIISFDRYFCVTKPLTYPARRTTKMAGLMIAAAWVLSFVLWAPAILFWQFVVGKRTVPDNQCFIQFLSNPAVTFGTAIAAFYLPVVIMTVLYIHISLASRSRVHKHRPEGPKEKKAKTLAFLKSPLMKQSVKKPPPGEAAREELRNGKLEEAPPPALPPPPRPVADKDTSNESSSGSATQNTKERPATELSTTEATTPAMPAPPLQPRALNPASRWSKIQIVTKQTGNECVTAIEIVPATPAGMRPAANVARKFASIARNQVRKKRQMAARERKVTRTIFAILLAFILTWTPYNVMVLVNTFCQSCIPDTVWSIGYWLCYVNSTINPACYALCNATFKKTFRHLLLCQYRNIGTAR
Put plainly: Displacement of [3H]NMS from human muscarinic M4 receptor expressed in CHO-K1 cell membrane assessed as inhibition constant incubated for 90 mins by competitive radioligand binding assay. In kind it is cell membranes.

Series [5] addresses T3, Muscarinic acetylcholine receptor M2 (Homo sapiens, UniProt P08172).
T3 sequence (P08172 whole entry): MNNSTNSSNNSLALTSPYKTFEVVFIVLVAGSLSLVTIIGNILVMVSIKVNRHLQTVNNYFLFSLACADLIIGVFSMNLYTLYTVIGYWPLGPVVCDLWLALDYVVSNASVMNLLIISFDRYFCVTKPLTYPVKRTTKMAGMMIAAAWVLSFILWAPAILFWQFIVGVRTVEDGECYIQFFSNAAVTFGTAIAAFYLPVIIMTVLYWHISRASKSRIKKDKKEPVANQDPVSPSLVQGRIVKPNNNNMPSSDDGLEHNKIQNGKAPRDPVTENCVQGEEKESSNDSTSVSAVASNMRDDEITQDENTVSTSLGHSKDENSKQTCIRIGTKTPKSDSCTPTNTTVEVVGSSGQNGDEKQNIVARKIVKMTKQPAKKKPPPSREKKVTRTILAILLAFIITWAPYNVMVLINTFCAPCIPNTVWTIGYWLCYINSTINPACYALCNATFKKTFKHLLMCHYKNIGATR
Briefly: Displacement of [3H]NMS from human muscarinic M2 receptor expressed in CHO-K1 cell membrane assessed as inhibition constant incubated for 90 mins by competitive radioligand binding assay. In kind it is cell membranes.

Series [6] can be described thus: Lipophilicity, log P of compound at pH 7.4 by HPLC analysis. In kind it is physicochemical. As to conditions: buffer.
Series [7] deals with T4, Muscarinic acetylcholine receptor M1 (Homo sapiens, UniProt P11229).
T4 sequence (P11229 whole entry): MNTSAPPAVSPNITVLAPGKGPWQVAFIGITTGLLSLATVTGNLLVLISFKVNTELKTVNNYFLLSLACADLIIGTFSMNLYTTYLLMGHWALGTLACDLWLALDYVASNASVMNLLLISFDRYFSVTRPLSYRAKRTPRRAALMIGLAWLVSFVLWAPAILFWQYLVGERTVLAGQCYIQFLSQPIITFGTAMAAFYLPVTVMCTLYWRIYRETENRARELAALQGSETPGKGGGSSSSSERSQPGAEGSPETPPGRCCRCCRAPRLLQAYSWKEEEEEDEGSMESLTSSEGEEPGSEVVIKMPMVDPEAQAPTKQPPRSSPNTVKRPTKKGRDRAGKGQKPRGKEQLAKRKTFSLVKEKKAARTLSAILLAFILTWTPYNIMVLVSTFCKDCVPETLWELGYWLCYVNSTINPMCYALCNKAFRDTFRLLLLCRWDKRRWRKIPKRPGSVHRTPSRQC
Put plainly: Displacement of [3H]NMS from human muscarinic M1 receptor expressed in CHO-K1 cell membrane assessed as inhibition constant incubated for 90 mins by competitive radioligand binding assay. In kind it is cell membranes.

For series [8], the target named is T5, Muscarinic acetylcholine receptor M1 (Homo sapiens) (UniProt P11229).
T5 sequence (whole entry): T4 sequence (P11229 whole entry)
Put plainly: Agonist activity at human muscarinic M1 receptor expressed in CHO-K1 cell membrane upto 100 uM by fluorescence based assay. In kind it is functional, cell membranes.

Series [9] addresses T5, Muscarinic acetylcholine receptor M1 (Homo sapiens). Put plainly: Antagonist activity at human muscarinic M1 receptor expressed in CHO-K1 cell membrane assessed as reduction in carbachol-induced ca2+ influx by fluorescence based assay. The conditions noted are these: filed as antagonist. In kind it is functional, cell membranes.

As usually defined, the IC50 is the midpoint of a concentration-inhibition curve. A low value points to higher potency. In general, Ki refers to a dissociation constant, usually derived from enzyme kinetics or from competition with a known ligand. A word on the logP: it is the decadic logarithm of the partition coefficient of the neutral form, usually between octanol and water. Read a low logP as a more hydrophilic compound. In series [1], `CN1CC(Oc2nc3ccccc3n2-c2ccccc2)C1` displayed an IC50 at 72 h of at least 100000 nM. Moreover, the Ki in series [2], in series [3], in series [4], in series [5] and in series [7] was above 1000 nM each time. The same compound showed a lipophilicity (logP) in [6] of 2.6.
Regarding `CN1CCN(Cc2nc3cccnc3n2-c2ccccc2C(=O)O)CC1`, the Ki in [3], in series [4] and in series [5] was above 1000 nM in each case.
The compound `CN1[C@@H]2C[C@@H](Oc3nc4ccccc4n3-c3ccccc3)C[C@H]1[C@@H]1O[C@@H]12` returned an IC50 at 72 h in [1] of at least 100000 nM. For the same compound, the Ki in series [2] is 164 nM; in [3] it was 350 nM; in [4], 189 nM; in series [5], above 1000 nM; in series [7] it was 285 nM. Moreover, in [6], the logP is reported as 3.04.
In series [1], `CN1CCCC(OC(=O)N(c2ccccc2)c2ccccc2)C1` (stereo unspecified) showed an IC50 at 72 h of at least 100000 nM. For the same compound, the inhibitory constant (Ki) in series [2], in series [3], in series [4], in series [5] and in [7] was above 1000 nM in each case. The logP in series [6] worked out at 2.69.
Take `CN1[C@@H]2C[C@@H]3C[C@H]1C(O3)C2OC(=O)N(c1ccccc1)c1ccccc1` (stereo partly specified): the IC50 at 72 h in [1] is at least 100000 nM. Also, the Ki in series [2], in series [3], in series [4], in series [5] and in [7] was above 1000 nM throughout. For the same compound, the result in [8] was inactive. The Activity result in [9] was “Dose-Dependent Effect”. The same compound had a logP in series [6] of 1.58.
In turn, `CN1[C@@H]2CC[C@H]1C[C@H](OC(=O)N(c1ccccc1)c1ccccc1)C2` came in with an IC50 at 72 h in [1] of at least 100000 nM. The Ki turned out to be 75 nM in series [2]; 108 nM in [3]; 50 nM in series [4]; 222 nM in series [5]; 44 nM in series [7]. In series [8], the outcome was inactive. In addition, the Activity entry in series [9] was “Dose-Dependent Effect”. In [6], this compound yielded a logP of 1.58.
As for `CN1CCC(Oc2nc3ccccc3n2-c2ccccc2)CC1`, the IC50 at 72 h in series [1] was at least 100000 nM. Further, the Ki in series [2] came out at 18 nM; in [3], 21 nM; in [4] it was 32 nM; in series [5], 108 nM; in [7], 20 nM. Moreover, in [8], the outcome was inactive. In [9], the Activity entry is “Dose-Dependent Effect”. In addition, the logP in series [6] was 2.94.
For the compound `CN1CCC(OC(=O)N(c2ccccc2)c2ccccc2)CC1`, in series [1], the IC50 at 72 h was at least 100000 nM. Besides, the Ki in series [2] is 255 nM; in series [3], 121 nM; in series [4], 158 nM; in series [5], above 1000 nM; in [7] it was 255 nM. In series [8], the result was inactive. In [9], the Activity entry is “Dose-Dependent Effect”. This compound returned a logP in series [6] of 2.11.
As to `CN1CC(OC(=O)N(c2ccccc2)c2ccccc2)C1`, the IC50 at 72 h in [1] was at least 100000 nM. Further, the Ki in series [2] is above 1000 nM; in [3] it was 339 nM; in [4], 244 nM; in series [5] it was above 1000 nM; in series [7], above 1000 nM. Also, the logP in series [6] is 1.82.
In turn, `CN1[C@@H]2CC[C@H]1C[C@@H](OC(=O)N(c1ccccc1)c1ccccc1)C2` came in with an IC50 at 72 h in series [1] of at least 100000 nM. The Ki in series [2], in series [3], in series [4], in series [5] and in series [7] was above 1000 nM throughout. In addition, the logP in [6] is listed as 2.69.
In the case of `CN1CCCC(Oc2nc3ccccc3n2-c2ccccc2)C1` (racemic), the IC50 at 72 h in series [1] is at least 100000 nM. For the same compound, the inhibition constant (Ki) came to 77 nM in series [2]; 236 nM in series [3]; 152 nM in series [4]; 385 nM in series [5]; 288 nM in series [7]. The same compound gave a logP in series [6] of 3.2.
